Experiment in all cases: Minimum Inhibitory Concentration (MIC) in the agar incorporation test
What all share (format): cell-based

Test [1] has as its system Aspergillus niger ATCC 6275. As to conditions: ATCC6275, 72 h, 3 days at 28° C. The protocol:
(§1) Determination of the Minimum Inhibitory Concentration (MIC) in the Agar Incorporation Test (MIC Test) [table] Test Principle 0.3 ml of each dilution step is mixed with 15 ml of still liquid nutrient medium. After the nutrient medium has solidified, 10 μl of each of the following organism dilutions of the test strains in 0.85% NaCl solution is dotted onto the agar medium: [table] The plates are incubated for 24 hours at 37° C. (A. niger 3 days at 28° C.) and then the highest dilution (lowest concentration) of the test substance at which no more growth is observed (corresponds to the MIC) is determined.

Test [2] deals with Staphylococcus aureus ATCC 9144. The conditions noted are these: 24 hours at 37° C. The protocol:
as §1

Test [3] deals with Escherichia coli NCTC 8196. As to conditions: NCTC8196, Table 1, casein-soybean flour-peptone agar, 24 hours at 37° C., dilution series 1000 ppm to 10 ppm. Here is the method:
as §1

Test [4] deals with Pseudomonas aeruginosa CIP A-22. The conditions noted are these: CIPA22, Table 1, casein-soybean flour-peptone agar, 24 hours at 37° C., dilution series 1000 ppm to 10 ppm. The protocol: as §1
For test [5], the system named is Candida albicans ATCC 10231. The conditions noted are these: ATCC10231, Table 1, casein-soybean flour-peptone agar, 24 hours at 37° C., dilution series 1000 ppm to 10 ppm. Here is the method: as §1
The mark [6] stands for this setting: Table 2, MIC test, read-out: Further microbiological test results, Aspergillus niger ATCC 6275.
[7] abbreviates: ATCC9144, Table 2, MIC test, read-out: Further microbiological test results, Staphylococcus aureus ATCC 9144.

Like-named read-outs stand apart in the source and are kept apart here. Bounds are passed on as bounds.

For the molecule `COC(=O)C#CCNc1ccc(C)cc1` [Compound of formula (118)], the MIC in test [1] (setting [6]) and in test [2] (setting [7]) was 125 µg/mL each time.
With `CCCN(CC#CC(=O)OC)c1cccc(OC)c1` [Compound of formula (108)], the MIC in test [1] (setting [6]) turned out to be 125 µg/mL; in test [2] (setting [7]), 63 µg/mL.
The corresponding values for `CCOC(=O)C#CCNc1ccc(OC)cc1` [Compound of formula (117)] are 500 µg/mL and 500 µg/mL.
Turning to `CCCN(CC#CC(=O)OC)c1ccc(OC)cc1` [Compound of formula (111)], the MIC in test [2] (setting [7]) came out at 63 µg/mL.
`CCOC(=O)C#CCNc1ccccc1` [Compound of formula (116)]: the MIC in test [1] (setting [6]) and in test [2] (setting [7]) was 125 µg/mL each time.
Consider `CCCCN(CC#CC(=O)OC)c1cccc(C)c1` [Compound of formula (113)], for which the MIC in test [2] (setting [7]) stood at 125 µg/mL.
With `CCCN(CC#CC(=O)OC)c1cccc(C)c1` [Compound of formula (106)], the MIC in test [1] (setting [6]) and in test [2] (setting [7]) was 125 µg/mL in each case.
Consider `CCCN(CC#CC(=O)OCC)c1cccc(OC)c1` [Compound of formula (109)], for which the MIC in test [2] (setting [7]) was 1000 µg/mL.
Take `COC(=O)CC#CCN(C)c1ccccc1` [Compound of formula (101), 4-(N-methyl-phenylamino)-but-2-yne-carboxylic Acid Methyl Ester]: the MIC is 125 µg/mL in test [3]; greater than 1000 µg/mL in test [4]; 62.5 µg/mL in test [5]; 62.5 µg/mL in test [1] (Table 1, Sabouraud 4% glucose-agar, dilution series 1000 ppm to 10 ppm, read-out: Minimum Inhibitory Concentration (MIC), Aspergillus niger ATCC 6275); 62.5 µg/mL in test [2] (ATCC9144, Table 1, casein-soybean flour-peptone agar, dilution series 1000 ppm to 10 ppm, read-out: Minimum Inhibitory Concentration (MIC), Staphylococcus aureus ATCC 9144).
For the molecule `CCCCCN(CC#CC(=O)OC)c1ccccc1` [Compound of formula (110)], the MIC was 125 µg/mL in test [1] (setting [6]) and 63 µg/mL in test [2] (setting [7]).
In the case of `CCCCCN(CC#CC(=O)OC)c1cccc(OC)c1` [Compound of formula (112)], in test [2] (setting [7]), the MIC amounted to 63 µg/mL.
In the case of `CCCCN(CC#CC(=O)OC)c1ccccc1` [Compound of formula (107)], the MIC in test [1] (setting [6]) and in test [2] (setting [7]) was 63 µg/mL throughout.
For `CCN(CC#CC(=O)OC)c1ccc(OC)cc1` [Compound of formula (114)], the MIC in test [1] (setting [6]) and in test [2] (setting [7]) was 60 µg/mL in each case.
On to `CCN(CC#CC(=O)OC)c1cccc(C)c1` [Compound of formula (115)], for which, in test [1] (setting [6]), the MIC was 8 µg/mL.

(Values after patent publication US6743940B2, “4-aminobut-2-ynecarboxylic acid derivatives” (Ciba Specialty Chemicals Corporation, priority 2000, dated 2004).)
